Values of other authors as cited in patent publication US10751328B2, “Therapy for chronic idiopathic urticaria, anaphylaxis and angioedema” (priority 2013, dated 2020).

Assays:
[1] = test system: white blood cell counts (eosinophil, basophils); settings: ALS subjects, 150 mg twice daily up to 18 months, monthly CBCs; FIGS. 1 to 4 (prior art poster)
[2] = test system: wheal and flare reaction; settings: versus histamine
[3] = dihydrochloride monohydrate salt, crystalline
[4] = test system: chronic idiopathic urticaria symptoms; settings: patients with chronic idiopathic urticaria symptomatic despite approved doses of H1-antihistamines; 139 patients

For `CCCN[C@@H]1CCc2nc(N)sc2C1` [Dexpramipexole, (6R)-4,5,6,7-tetrahydro-N6-propyl-2,6 benzothiazole diamine], which “effect on white blood cell counts” value [1] is on record?
Its value is “reduce white blood cell counts, especially eosinophil and basophils”.

For `CCCCC/C=C\C\C=C/C=C/C=C/[C@@H](SC[C@H](NC(=O)CC[C@H](N)C(=O)O)C(=O)NCC(=O)O)[C@@H](O)CCCC(=O)O` [LTC4, leukotriene C4], which “potency relative to histamine in causing wheal and flare reaction” value [2] is on record?
Its value is “about 1,000 times”.

With `CCCN[C@H]1CCc2nc(N)sc2C1` [pramipexole, (6S)-2-amino-4,5,6,7-tetrahydro-6-(propylamino)benzothiazole] as the compound, how does the solubility in water [3] read?
The solubility in water was “extremely well soluble in water”.

Which effect on symptoms [4] does the source give for “omalizumab: agent effective in chronic idiopathic urticaria through its reduction of FcεRI function in basophils and mast cells” here?
The effect on symptoms was “beneficial effects on symptoms”.
